Activity calls are given as the source filed them.
Assays:
[1] = molecular target: Acyl-homoserine lactone acylase PvdQ (Pseudomonas aeruginosa (strain LESB58), UniProt Q9I194); assay: P. aeruginosa PvdQ acylase inhibitors, dose response, biochemical, fluorescence, plate reader and imaging, cherry-picks (AID 493231)
[2] = molecular target: T1, Dual specificity protein phosphatase 6 (Rattus norvegicus, UniProt Q64346); type: functional
T1 sequence (Q64346 whole entry): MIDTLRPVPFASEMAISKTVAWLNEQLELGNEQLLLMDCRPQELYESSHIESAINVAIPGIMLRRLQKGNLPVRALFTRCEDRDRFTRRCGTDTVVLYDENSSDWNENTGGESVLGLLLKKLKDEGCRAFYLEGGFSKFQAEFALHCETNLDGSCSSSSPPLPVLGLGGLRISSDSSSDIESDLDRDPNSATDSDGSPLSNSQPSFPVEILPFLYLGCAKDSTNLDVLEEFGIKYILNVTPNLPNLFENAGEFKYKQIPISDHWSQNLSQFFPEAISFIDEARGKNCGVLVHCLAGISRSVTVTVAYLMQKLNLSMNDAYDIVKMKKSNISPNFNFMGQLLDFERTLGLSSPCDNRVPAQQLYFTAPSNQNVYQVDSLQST

[3] = molecular target: Heat shock 70 kDa protein 1A (Homo sapiens, UniProt P0DMV8); assay: Hsp70 inhibitors, SAR follow-up, biochemical, fluorescence polarization (AID 1072)
[4] = molecular target: T1, Dual specificity protein phosphatase 6
[5] = molecular target: Heat shock cognate 71 kDa protein (Homo sapiens, UniProt P11142); assay: In Vitro Hsc70 Dose Response Fluorescence Polarization Assay. [Related pubchem assays: 1072 ]
[6] = molecular target: T2, Tyrosine-protein phosphatase non-receptor type 7 (Homo sapiens, UniProt P35236); type: functional
T2 sequence (P35236 whole entry): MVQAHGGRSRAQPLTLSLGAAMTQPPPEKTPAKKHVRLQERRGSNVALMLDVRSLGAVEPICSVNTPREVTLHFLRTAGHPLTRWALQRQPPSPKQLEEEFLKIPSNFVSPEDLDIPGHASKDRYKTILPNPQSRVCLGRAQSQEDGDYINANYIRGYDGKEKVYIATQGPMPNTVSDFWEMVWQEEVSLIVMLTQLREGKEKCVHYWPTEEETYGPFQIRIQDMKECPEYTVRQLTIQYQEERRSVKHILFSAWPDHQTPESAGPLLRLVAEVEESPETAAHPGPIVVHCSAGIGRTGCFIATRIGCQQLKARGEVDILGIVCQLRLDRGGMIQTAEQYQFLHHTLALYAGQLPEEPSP

[7] = molecular target: Glyceraldehyde-3-phosphate dehydrogenase (Homo sapiens, UniProt P04406)
[8] = test system: HEK293; assay: TNF Induced NF-kB Luciferase in 293-NF-kB-Luc Stable Cells. [Related pubchem assays: 1266, 1299, 1269, 1373, 1292, 1290, 1302, 1371, 1283, 1270, 1295, 1271, 1375, 1294, 1374, 1281, 1293, 1291, 1289, 1280, 465, 1368, 1364, 1282, 1372, 1365, 1369, 1370, 1367, 1366 ]; type: functional, cell-based; conditions: Homo sapiens
[9] = inhibitors of SNCA 5'UTR-driven reporter translation, confirmation, H4 neuroglioma cells, luminescence (AID 1988); type: functional, cell-based
[10] = test system: HEK293; assay: PMA/Ionomycin induced NF-kB luciferase assay in 293- NF-kB-Luc stable cells. [Related pubchem assays: 1299, 1270, 1295, 1375, 1287, 1281, 1293, 1291, 1289, 1280, 465, 1364, 1282, 1372, 1365, 1370, 1367, 1366, 1269, 1373, 1292, 1290, 1302, 1371, 1283, 1271, 1294, 1374, 1368, 1369 ]; type: functional, cell-based; conditions: Homo sapiens
[11] = molecular target: Luciferin 4-monooxygenase (Photinus pyralis, UniProt P08659); assay: In vitro luciferase assay using purified luciferase. [Related pubchem assays: 1299, 1270, 1295, 1375, 1287, 1281, 1293, 1291, 1289, 1280, 465, 1364, 1282, 1372, 1365, 1370, 1367, 1366, 1266, 1373, 1292, 1290, 1302, 1371, 1283, 1271, 1294, 1374, 1368, 1369 ]
[12] = test system: A-375; assay: MITF: Counter assay: A375 proliferation Measured in Cell-Based System Using Plate Reader - 2084-03_Inhibitor_Dose_DryPowder_Activity. [Related pubchem assays (depositor defined):AID488944]; type: functional; conditions: Homo sapiens
[13] = test system: HEK293; assay: PMA/Ionomycin-induced IL-8 production in HEK293- NF-kB-Luc stable cells. [Related pubchem assays: 1299, 1295, 1375, 1287, 1281, 1293, 1291, 1289, 1280, 465, 1364, 1282, 1372, 1365, 1367, 1366, 1266, 1269, 1373, 1292, 1290, 1302, 1371, 1283, 1271, 1294, 1374, 1368, 1369 ]; type: functional, cell-based; conditions: Homo sapiens
[14] = test system: BJ; assay: cells; type: functional, cell-based; conditions: Homo sapiens
[15] = test system: A-375; assay: A375 melanoma cell viability reduction, dose response, counter-screen for MITF modulator project, cherry-pick samples, set 2 (AID 540335); type: functional, cell-based; conditions: Homo sapiens
[16] = molecular target: T3, Microphthalmia-associated transcription factor (Homo sapiens, UniProt O75030); assay: TRPM1 promoter luciferase signal decrease, dose response, MITF inhibitor project, cell-based, SK-MEL-5, cherry-picked, set 3 (AID 493073); type: functional
T3 sequence (O75030 whole entry): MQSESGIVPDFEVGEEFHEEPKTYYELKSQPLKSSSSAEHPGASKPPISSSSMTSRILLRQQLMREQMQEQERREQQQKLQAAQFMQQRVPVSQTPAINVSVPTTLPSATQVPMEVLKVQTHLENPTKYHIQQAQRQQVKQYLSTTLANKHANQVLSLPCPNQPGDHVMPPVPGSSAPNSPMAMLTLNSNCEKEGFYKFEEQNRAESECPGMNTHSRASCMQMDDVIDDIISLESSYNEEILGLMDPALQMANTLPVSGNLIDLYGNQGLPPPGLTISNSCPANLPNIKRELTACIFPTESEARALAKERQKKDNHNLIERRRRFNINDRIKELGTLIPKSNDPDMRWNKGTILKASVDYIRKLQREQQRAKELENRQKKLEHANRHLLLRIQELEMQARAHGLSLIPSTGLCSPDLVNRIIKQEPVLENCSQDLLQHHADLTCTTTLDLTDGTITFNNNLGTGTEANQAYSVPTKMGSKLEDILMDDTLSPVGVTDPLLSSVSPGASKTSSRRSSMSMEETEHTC

[17] = cytotoxicity in HEK-293T cells, dose response, cytotoxicity control for TCR NF-kB inhibitor project, luminescence, T-cell screen hits (AID 489026); type: functional, cell-based;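 further: cells exposed to compound about 14 hours before the viability readout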
[18] = inhibitors of firefly luciferase expression or activity, dose response, H4 neuroglioma cells, luminescence (AID 1990); type: functional, cell-based
[19] = inhibitors of SNCA 5'UTR-driven translation, confirmation, luminescence, H4 neuroglioblastoma cells, dose confirmation (AID 2454); type: functional, cell-based;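 further: H4 neuroglioblastoma cells carrying an alpha-synuclein 5'UTR luciferase reporter; potency for inhibition of the luciferase signal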
[20] = cells; type: functional, cell-based
[21] = test system: HEK293; assay: Cytotoxicity assay in HEK293 cells. [Related pubchem assays (depositor defined):AID1266, AID1269, AID1270, AID1271, AID1280, AID1281, AID1282, AID1283, AID1287, AID1289, AID1290, AID1291, AID1292, AID1293, AID1294, AID1295, AID1299, AID1302, AID1364, AID1365, AID1366, AID1367, AID1369, AID1370, AID1371, AID1372, AID1373, AID1374, AID1375, AID1384 …; type: functional, cell-based; conditions: Homo sapiens
[22] = luciferase reporter signal reduction – luminescence, H4-C neuroglioblastoma cells, dose response (AID 2458); type: functional, cell-based;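 further: H4 neuroglioblastoma cells stably carrying a luciferase reporter gene fusion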
[23] = molecular target: Cytochrome P450 2C9 (Homo sapiens, UniProt P11712); conditions: Potency
[24] = molecular target: Cytochrome P450 2C19 (Homo sapiens, UniProt P33261); assay: qHTS Assay for Inhibitors and Substrates of Cytochrome P450 2C19. [Related pubchem assays: 410 ]; type: ADME; conditions: read-out: Potency
[25] = molecular target: Cytochrome P450 2D6 (Homo sapiens, UniProt P10635); assay: qHTS Assay for Inhibitors and Substrates of Cytochrome P450 2D6. [Related pubchem assays: 410 ]; type: ADME; conditions: read-out: Potency
Sequence of Cytochrome P450 2D6 (P10635 whole entry): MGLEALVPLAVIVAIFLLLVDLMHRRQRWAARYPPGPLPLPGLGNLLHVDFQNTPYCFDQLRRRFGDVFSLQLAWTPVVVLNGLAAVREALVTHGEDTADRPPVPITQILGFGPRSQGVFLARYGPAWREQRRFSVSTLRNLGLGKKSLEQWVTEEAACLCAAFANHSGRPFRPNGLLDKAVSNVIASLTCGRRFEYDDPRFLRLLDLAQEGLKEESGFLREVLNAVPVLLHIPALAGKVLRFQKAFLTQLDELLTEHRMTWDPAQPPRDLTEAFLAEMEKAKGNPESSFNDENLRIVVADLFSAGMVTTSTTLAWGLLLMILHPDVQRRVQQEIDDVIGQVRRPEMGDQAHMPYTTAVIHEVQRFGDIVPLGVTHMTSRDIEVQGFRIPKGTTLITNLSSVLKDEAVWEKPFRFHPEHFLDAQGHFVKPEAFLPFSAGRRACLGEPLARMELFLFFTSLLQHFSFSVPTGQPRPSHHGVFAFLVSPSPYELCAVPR

Sequence of Cytochrome P450 2C19 (P33261 whole entry): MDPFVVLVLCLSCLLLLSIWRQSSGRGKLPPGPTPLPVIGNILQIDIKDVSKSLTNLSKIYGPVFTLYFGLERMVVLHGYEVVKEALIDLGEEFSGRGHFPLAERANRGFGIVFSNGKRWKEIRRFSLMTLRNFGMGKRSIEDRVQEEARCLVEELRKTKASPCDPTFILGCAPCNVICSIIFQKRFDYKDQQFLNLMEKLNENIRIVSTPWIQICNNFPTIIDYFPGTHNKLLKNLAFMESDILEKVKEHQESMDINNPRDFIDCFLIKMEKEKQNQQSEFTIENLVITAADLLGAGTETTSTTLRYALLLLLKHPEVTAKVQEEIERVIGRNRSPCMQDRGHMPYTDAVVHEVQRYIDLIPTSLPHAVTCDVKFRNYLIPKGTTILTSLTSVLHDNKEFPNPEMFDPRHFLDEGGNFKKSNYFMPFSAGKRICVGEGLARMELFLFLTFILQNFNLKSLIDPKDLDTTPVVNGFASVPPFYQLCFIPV
Sequence of Heat shock 70 kDa protein 1A (P0DMV8 whole entry): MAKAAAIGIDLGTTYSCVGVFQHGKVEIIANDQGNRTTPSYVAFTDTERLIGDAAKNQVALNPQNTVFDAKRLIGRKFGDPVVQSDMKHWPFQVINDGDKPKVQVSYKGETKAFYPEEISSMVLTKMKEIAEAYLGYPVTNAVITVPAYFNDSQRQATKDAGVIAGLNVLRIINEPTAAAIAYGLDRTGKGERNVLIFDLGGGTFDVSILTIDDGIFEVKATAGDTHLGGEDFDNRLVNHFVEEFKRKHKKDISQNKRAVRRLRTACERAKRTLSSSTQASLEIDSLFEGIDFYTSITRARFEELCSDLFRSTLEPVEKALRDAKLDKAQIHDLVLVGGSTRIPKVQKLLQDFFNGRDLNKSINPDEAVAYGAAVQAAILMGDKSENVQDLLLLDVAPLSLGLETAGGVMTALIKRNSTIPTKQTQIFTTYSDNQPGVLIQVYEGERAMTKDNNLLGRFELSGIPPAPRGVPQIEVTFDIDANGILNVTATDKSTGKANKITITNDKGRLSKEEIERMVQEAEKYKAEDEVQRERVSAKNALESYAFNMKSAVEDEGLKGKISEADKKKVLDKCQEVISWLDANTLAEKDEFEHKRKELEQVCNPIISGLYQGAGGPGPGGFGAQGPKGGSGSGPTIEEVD
Sequence of Glyceraldehyde-3-phosphate dehydrogenase (P04406 whole entry): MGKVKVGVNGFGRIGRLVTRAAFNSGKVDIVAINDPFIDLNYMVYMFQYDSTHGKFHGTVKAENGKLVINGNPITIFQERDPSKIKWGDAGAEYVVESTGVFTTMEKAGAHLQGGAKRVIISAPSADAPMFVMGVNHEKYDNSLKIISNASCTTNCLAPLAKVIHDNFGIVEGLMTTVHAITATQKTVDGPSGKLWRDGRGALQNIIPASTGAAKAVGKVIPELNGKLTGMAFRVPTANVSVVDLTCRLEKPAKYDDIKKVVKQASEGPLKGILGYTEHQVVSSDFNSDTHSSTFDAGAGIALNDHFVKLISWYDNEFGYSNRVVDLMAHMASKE
Sequence of Heat shock cognate 71 kDa protein (P11142 whole entry): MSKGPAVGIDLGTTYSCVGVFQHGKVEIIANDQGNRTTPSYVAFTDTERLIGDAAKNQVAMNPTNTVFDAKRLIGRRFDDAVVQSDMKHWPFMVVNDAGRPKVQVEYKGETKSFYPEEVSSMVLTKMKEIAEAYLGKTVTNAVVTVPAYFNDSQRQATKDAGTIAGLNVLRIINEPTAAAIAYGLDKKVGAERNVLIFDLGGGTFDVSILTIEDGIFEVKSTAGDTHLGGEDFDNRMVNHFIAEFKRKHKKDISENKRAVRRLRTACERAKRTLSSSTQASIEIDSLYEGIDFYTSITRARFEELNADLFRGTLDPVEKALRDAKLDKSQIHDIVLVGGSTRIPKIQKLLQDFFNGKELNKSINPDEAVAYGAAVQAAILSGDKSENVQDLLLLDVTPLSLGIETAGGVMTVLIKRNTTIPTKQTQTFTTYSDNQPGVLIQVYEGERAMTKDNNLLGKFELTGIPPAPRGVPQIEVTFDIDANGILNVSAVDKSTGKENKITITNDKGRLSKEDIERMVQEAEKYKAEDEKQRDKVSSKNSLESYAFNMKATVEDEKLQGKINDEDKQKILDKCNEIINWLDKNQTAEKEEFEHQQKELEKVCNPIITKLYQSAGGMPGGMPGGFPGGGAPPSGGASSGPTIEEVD
Sequence of Cytochrome P450 2C9 (P11712 whole entry): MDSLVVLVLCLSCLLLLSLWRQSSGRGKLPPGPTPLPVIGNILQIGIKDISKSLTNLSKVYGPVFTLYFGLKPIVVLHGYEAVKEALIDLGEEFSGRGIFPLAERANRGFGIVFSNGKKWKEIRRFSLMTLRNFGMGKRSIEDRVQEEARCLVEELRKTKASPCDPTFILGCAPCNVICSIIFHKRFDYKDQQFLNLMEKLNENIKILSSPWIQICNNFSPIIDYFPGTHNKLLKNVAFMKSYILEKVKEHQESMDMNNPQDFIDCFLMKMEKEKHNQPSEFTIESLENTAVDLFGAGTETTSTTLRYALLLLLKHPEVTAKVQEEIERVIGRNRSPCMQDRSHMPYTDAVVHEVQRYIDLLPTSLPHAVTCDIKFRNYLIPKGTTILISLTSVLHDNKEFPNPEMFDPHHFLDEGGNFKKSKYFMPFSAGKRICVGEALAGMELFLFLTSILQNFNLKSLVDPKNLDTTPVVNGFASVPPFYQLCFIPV
Sequence of Acyl-homoserine lactone acylase PvdQ (Q9I194 24-193 limits assumed): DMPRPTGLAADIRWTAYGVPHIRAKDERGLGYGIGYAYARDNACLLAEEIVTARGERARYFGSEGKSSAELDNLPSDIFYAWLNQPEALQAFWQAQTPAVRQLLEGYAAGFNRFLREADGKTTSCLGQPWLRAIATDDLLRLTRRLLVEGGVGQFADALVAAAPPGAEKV
Sequence of Acyl-homoserine lactone acylase PvdQ (Q9I194 217-762 limits assumed): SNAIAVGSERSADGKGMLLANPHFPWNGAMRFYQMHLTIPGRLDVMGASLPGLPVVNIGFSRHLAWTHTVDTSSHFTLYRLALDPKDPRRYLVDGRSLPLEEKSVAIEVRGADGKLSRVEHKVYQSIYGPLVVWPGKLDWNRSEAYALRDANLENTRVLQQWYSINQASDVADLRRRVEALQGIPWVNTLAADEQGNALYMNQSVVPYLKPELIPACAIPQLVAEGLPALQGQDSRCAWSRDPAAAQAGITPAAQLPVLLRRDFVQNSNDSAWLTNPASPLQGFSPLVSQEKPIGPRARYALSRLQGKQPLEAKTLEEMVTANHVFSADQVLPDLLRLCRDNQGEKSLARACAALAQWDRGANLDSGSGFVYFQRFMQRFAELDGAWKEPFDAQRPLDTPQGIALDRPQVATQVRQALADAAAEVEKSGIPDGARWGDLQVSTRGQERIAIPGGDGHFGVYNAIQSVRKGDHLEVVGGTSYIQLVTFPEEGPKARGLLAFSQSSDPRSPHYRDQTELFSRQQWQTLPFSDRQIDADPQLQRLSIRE
Sequence of Luciferin 4-monooxygenase (P08659 whole entry): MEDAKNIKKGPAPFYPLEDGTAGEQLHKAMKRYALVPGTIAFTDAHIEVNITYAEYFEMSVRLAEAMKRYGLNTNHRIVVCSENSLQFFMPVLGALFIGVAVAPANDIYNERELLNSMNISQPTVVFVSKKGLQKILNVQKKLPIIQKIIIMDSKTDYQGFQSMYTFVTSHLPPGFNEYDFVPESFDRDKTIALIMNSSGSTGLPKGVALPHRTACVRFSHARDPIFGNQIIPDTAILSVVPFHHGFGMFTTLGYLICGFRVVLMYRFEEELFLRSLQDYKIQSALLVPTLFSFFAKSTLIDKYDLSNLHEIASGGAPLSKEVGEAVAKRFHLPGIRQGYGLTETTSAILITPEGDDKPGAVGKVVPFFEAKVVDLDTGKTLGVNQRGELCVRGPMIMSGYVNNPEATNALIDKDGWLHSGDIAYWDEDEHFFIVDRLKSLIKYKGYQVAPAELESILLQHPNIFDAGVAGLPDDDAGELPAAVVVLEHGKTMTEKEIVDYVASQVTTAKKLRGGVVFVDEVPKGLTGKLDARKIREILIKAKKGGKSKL

In the case of `N#CC(c1ccc(Cl)cc1)c1cccc(Cl)n1` (stereo not given), the AC50 [1] is reported as 0.5 µM (active).

In the case of `NC(=O)c1cccc2c1NC(C(=O)O)C1CC=CC21` (stereo not given), the IC50 [2] is reported as 55.5 µM (active), the IC50 [3] is reported as 10.4 µM (active) and the IC50 [4] is reported as 58.6 µM (active). For the same compound, the IC50 [5] was 86 µM (active), the IC50 [6] was 3 µM (active) and the IC50 [7] was > 100 µM (not active).

In the case of `COc1cc(C2C(C#N)=C(N)Oc3cc(N(C)C)ccc32)cc2c1OCO2` (stereo not given), the EC50 [8] is reported as > 8 µM (not active), the EC50 [9] is reported as < 0.1 µM (active) and the EC50 [10] is reported as 2.18 µM (active). The EC50 [11] was > 8 µM (not active), the AC50 [12] was > 35 µM (active) and the EC50 [13] was > 8 µM (not active). For the same compound, the EC50 [14] was 121 µM (inconclusive), the AC50 [15] was > 35 µM (active) and the AC50 [16] was 0.601 µM (active). For the same compound, the IC50 [17] was > 80 µM (inactive), the EC50 [18] was < 0.1 µM (active) and the EC50 [19] was 0.106 µM (active). The EC50 [20] was 0.116 µM (active), the EC50 [21] was > 8 µM (inactive) and the EC50 [22] was 0.096 µM (active).

In the case of `CC[C@H]1C(=O)OC[C@@H]1Cc1cncn1C`, the AC50 [23] is reported as 12.6 µM (inconclusive).

In the case of `COc1ccc2oc(-c3ccccc3)c(OC)c(=O)c2c1` [3,6-DIMETHOXYFLAVONE], the AC50 [24] is reported as 10 µM (inconclusive) and the AC50 [25] is reported as 39.8 µM (inconclusive).
